Results as given in ChEMBL document CHEMBL4229333, “Effects of rigidity on the selectivity of protein kinase inhibitors” (Eur J Med Chem, 2018).

How the values were obtained:
[1] = target: MAP kinase-activated protein kinase 2 (Homo sapiens) (UniProt P49137); experiment: Inhibition of MAPKAPK2 (unknown origin) at 1 uM by mobility shift microfluidics platform based assay relative to control
[2] = target: Casein kinase I isoform alpha (Homo sapiens) (UniProt P48729); experiment: Inhibition of CK1-alpha1 (unknown origin) at 1 uM by mobility shift microfluidics platform based assay relative to control
[3] = target: Ephrin type-A receptor 5 (Homo sapiens) (UniProt P54756); experiment: Inhibition of EPH-A5 (unknown origin) at 1 uM by mobility shift microfluidics platform based assay relative to control
Ephrin type-A receptor 5 (Homo sapiens), sequence (P54756 whole entry): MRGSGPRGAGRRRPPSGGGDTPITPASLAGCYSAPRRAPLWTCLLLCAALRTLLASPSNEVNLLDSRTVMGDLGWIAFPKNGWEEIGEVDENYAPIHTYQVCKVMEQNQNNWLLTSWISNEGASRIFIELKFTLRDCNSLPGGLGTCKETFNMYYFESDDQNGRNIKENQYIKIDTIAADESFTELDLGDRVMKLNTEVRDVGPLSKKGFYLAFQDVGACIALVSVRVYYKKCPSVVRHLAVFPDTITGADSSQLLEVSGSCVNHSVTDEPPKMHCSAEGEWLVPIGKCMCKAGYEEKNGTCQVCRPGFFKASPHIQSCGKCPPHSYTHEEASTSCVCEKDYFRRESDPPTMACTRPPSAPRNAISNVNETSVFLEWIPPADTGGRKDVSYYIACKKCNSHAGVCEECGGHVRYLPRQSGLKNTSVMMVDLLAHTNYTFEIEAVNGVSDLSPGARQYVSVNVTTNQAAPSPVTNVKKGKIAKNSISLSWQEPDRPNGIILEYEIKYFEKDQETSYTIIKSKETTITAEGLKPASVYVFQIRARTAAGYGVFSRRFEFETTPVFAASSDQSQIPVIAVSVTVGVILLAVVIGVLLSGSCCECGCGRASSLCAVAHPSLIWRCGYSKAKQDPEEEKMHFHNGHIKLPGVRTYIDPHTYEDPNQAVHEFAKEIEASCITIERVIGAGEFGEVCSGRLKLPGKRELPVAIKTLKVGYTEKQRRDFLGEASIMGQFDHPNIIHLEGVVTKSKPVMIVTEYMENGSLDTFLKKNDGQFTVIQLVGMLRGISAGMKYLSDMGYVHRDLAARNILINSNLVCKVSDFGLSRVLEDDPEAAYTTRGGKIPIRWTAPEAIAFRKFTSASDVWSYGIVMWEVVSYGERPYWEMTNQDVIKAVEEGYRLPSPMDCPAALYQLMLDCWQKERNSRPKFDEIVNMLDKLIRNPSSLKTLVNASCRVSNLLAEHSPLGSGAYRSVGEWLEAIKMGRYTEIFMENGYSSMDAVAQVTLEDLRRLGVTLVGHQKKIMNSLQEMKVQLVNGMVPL

[4] = target: Proto-oncogene tyrosine-protein kinase receptor Ret (Homo sapiens) (UniProt P07949); experiment: Inhibition of RET (unknown origin) at 1 uM by mobility shift microfluidics platform based assay relative to control
Proto-oncogene tyrosine-protein kinase receptor Ret (Homo sapiens), sequence (P07949 whole entry): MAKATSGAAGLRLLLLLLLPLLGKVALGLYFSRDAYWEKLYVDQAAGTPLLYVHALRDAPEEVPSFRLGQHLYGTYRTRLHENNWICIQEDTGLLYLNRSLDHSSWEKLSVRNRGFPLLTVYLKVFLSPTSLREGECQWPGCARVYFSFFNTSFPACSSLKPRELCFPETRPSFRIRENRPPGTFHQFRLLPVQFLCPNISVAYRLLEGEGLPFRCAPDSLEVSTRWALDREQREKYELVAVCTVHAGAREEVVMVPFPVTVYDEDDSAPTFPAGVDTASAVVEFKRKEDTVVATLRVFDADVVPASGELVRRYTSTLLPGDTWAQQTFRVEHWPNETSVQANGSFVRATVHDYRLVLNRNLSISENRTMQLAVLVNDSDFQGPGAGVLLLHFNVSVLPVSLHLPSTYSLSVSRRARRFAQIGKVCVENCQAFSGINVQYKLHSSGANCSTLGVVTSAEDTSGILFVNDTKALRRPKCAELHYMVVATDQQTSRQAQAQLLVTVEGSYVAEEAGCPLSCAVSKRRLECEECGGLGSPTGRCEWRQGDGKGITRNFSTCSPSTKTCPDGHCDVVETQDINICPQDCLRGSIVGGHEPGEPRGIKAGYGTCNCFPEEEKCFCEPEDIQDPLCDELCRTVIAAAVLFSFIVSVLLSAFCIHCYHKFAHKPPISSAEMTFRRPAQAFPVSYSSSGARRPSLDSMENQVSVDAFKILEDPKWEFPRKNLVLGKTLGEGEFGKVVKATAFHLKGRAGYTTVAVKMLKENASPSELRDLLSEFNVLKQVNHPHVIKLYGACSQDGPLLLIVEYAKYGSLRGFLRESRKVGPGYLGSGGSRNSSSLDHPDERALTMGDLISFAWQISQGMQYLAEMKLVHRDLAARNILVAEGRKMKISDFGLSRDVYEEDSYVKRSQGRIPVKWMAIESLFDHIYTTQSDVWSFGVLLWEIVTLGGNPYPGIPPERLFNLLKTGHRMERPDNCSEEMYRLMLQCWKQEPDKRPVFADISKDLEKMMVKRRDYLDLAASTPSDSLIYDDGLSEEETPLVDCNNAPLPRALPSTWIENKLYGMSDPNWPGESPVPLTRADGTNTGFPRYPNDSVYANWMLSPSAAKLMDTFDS

[5] = target: Macrophage-stimulating protein receptor (Homo sapiens) (UniProt Q04912); experiment: Inhibition of RON (unknown origin) at 1 uM by mobility shift microfluidics platform based assay relative to control
Macrophage-stimulating protein receptor (Homo sapiens), sequence (Q04912 25-304 limits assumed): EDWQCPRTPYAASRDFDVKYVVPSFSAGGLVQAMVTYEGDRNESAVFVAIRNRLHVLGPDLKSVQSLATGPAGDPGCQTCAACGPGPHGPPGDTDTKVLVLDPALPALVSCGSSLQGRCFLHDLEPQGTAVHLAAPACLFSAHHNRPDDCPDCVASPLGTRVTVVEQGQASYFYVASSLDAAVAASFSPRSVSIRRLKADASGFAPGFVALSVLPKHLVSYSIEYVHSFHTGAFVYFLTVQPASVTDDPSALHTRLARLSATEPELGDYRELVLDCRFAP
Macrophage-stimulating protein receptor (Homo sapiens), sequence (Q04912 310-1400 limits assumed): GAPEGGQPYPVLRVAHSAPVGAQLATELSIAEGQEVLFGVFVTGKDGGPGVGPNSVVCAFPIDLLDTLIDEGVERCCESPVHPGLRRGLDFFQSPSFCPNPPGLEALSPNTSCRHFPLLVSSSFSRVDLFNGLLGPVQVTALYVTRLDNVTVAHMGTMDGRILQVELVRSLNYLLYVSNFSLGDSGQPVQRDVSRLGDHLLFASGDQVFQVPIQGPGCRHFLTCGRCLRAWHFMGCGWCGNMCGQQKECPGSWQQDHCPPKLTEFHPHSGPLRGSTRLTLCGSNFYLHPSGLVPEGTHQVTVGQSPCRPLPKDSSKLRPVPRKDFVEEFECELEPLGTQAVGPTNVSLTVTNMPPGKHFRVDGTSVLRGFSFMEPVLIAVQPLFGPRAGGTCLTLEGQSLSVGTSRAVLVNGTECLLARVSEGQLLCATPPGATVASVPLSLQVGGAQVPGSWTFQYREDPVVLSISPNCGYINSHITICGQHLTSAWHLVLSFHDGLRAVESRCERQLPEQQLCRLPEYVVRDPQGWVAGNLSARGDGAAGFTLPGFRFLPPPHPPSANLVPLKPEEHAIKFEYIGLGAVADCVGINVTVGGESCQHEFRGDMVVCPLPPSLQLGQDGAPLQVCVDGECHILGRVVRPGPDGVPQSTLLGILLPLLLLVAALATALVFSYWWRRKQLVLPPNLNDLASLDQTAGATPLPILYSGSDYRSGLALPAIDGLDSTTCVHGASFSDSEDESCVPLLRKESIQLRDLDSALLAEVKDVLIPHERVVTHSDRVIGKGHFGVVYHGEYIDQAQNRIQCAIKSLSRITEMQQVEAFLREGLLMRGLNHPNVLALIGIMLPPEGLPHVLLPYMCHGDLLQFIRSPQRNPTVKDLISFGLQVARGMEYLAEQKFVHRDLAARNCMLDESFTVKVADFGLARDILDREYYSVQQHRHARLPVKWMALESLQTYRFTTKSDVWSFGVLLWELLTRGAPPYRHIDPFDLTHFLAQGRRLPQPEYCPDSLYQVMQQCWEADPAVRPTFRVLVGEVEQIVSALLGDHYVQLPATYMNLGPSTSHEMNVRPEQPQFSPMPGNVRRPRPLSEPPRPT

[6] = target: Serine/threonine-protein kinase N2 (Homo sapiens) (UniProt Q16513); experiment: Inhibition of PKN2 (unknown origin) at 1 uM by mobility shift microfluidics platform based assay relative to control
[7] = target: Tyrosine-protein kinase ZAP-70 (Homo sapiens) (UniProt P43403); experiment: Inhibition of ZAP70 (unknown origin) at 1 uM by mobility shift microfluidics platform based assay relative to control
Tyrosine-protein kinase ZAP-70 (Homo sapiens), sequence (P43403 whole entry): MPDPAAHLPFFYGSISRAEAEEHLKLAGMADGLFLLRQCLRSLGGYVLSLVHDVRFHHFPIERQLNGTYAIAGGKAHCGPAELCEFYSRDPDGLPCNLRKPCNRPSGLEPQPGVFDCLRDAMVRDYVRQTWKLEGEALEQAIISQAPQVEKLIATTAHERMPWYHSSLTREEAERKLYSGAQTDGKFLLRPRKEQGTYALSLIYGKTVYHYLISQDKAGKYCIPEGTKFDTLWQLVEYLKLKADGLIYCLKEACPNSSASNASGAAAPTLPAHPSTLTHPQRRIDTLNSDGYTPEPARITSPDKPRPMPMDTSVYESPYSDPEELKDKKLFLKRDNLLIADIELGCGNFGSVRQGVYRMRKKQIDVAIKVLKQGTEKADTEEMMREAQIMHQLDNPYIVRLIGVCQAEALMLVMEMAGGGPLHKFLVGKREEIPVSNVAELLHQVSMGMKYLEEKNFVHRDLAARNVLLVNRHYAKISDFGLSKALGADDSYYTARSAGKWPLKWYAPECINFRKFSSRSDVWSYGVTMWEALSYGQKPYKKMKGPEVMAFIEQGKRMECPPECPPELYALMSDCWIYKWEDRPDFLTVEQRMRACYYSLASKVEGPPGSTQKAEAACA

[8] = target: AMP-activated protein kinase (AMPK) alpha-1/beta-1/gamma-1 (Homo sapiens) (UniProt P54619+Q9Y478+Q13131); experiment: Inhibition of AMP-A1B1G1 (unknown origin) at 1 uM by mobility shift microfluidics platform based assay relative to control; format: protein-complex assay
[9] = target: Serine/threonine-protein kinase LATS2 (Homo sapiens) (UniProt Q9NRM7); experiment: Inhibition of LATS2 (unknown origin) at 1 uM by mobility shift microfluidics platform based assay relative to control
[10] = target: SRSF protein kinase 3 (Homo sapiens) (UniProt Q9UPE1); experiment: Inhibition of MSSK1 (unknown origin) at 1 uM by mobility shift microfluidics platform based assay relative to control
[11] = target: Serine/threonine-protein kinase BRSK1 (Homo sapiens) (UniProt Q8TDC3); experiment: Inhibition of BRSK1 (unknown origin) at 1 uM by mobility shift microfluidics platform based assay relative to control
Serine/threonine-protein kinase BRSK1 (Homo sapiens), sequence (Q8TDC3 whole entry): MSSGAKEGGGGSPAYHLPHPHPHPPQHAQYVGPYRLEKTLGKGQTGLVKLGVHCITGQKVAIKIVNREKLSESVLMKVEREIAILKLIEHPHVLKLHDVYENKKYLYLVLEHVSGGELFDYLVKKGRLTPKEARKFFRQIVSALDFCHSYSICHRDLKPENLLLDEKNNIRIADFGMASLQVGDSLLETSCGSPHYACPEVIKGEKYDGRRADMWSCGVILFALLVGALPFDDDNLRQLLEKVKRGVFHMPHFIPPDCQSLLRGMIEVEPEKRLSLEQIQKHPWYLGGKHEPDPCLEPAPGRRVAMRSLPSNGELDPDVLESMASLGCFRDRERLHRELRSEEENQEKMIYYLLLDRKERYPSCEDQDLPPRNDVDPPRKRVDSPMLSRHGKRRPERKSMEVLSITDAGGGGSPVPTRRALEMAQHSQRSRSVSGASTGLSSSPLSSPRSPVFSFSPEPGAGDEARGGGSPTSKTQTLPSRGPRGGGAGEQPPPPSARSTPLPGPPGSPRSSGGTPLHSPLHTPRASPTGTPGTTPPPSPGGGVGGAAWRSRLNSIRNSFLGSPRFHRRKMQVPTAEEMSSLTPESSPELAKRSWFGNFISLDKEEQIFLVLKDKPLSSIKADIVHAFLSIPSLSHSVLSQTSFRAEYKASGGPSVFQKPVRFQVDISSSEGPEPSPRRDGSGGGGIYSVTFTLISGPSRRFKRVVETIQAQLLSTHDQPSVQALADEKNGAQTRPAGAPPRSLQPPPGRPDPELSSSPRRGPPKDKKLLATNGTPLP

[12] = target: Death-associated protein kinase 1 (Homo sapiens) (UniProt P53355); experiment: Inhibition of DAPK1 (unknown origin) at 1 uM by mobility shift microfluidics platform based assay relative to control
Homo sapiens = organism: Homo sapiens; experiment: Inhibition of CDK/Cyclin E (unknown origin) at 1 uM by mobility shift microfluidics platform based assay relative to control
[13] = target: Tyrosine-protein kinase Lyn (Homo sapiens) (UniProt P07948); experiment: Inhibition of LYNB (unknown origin) at 1 uM by mobility shift microfluidics platform based assay relative to control
[14] = target: Sphingosine kinase 1 (Homo sapiens) (UniProt Q9NYA1); experiment: Inhibition of SPHK1 (unknown origin) at 1 uM by mobility shift microfluidics platform based assay relative to control
[15] = target: Non-receptor tyrosine-protein kinase TNK1 (Homo sapiens) (UniProt Q13470); experiment: Inhibition of TNK1 (unknown origin) at 1 uM by mobility shift microfluidics platform based assay relative to control
[16] = target: Calcium/calmodulin-dependent protein kinase type II subunit alpha (Homo sapiens) (UniProt Q9UQM7); experiment: Inhibition of CAMK2A (unknown origin) at 1 uM by mobility shift microfluidics platform based assay relative to control
[17] = target: Epidermal growth factor receptor (Homo sapiens) (UniProt P00533); experiment: Inhibition of EGFR (unknown origin) at 1 uM by mobility shift microfluidics platform based assay relative to control
[18] = target: Tyrosine-protein kinase HCK (Homo sapiens) (UniProt P08631); experiment: Inhibition of HCK (unknown origin) at 1 uM by mobility shift microfluidics platform based assay relative to control
[19] = target: Ephrin type-A receptor 8 (Homo sapiens) (UniProt P29322); experiment: Inhibition of EPH-A8 (unknown origin) at 1 uM by mobility shift microfluidics platform based assay relative to control
[20] = target: RAC-beta serine/threonine-protein kinase (Homo sapiens) (UniProt P31751); experiment: Inhibition of AKT2 (unknown origin) at 1 uM by mobility shift microfluidics platform based assay relative to control
[21] = target: Homeodomain-interacting protein kinase 1 (Homo sapiens) (UniProt Q86Z02); experiment: Inhibition of HIPK1 (unknown origin) at 1 uM by mobility shift microfluidics platform based assay relative to control
[22] = target: ALK tyrosine kinase receptor (Homo sapiens) (UniProt Q9UM73); experiment: Inhibition of ALK (unknown origin) at 1 uM by mobility shift microfluidics platform based assay relative to control
[23] = target: Ephrin type-A receptor 1 (Homo sapiens) (UniProt P21709); experiment: Inhibition of EPH-A1 (unknown origin) at 1 uM by mobility shift microfluidics platform based assay relative to control
[24] = target: Dual specificity tyrosine-phosphorylation-regulated kinase 3 (Homo sapiens) (UniProt O43781); experiment: Inhibition of DYRK3 (unknown origin) at 1 uM by mobility shift microfluidics platform based assay relative to control
[25] = target: Mitogen-activated protein kinase 12 (Homo sapiens) (UniProt P53778); experiment: Inhibition of P38-gamma (unknown origin) at 1 uM by mobility shift microfluidics platform based assay relative to control
[26] = target: Cyclin-dependent kinase 5 (Homo sapiens) (UniProt Q00535); experiment: Inhibition of CDK5 (unknown origin) at 1 uM by mobility shift microfluidics platform based assay relative to control
[27] = target: Ribosomal protein S6 kinase beta-1 (Homo sapiens) (UniProt P23443); experiment: Inhibition of P70S6K1 (unknown origin) at 1 uM by mobility shift microfluidics platform based assay relative to control
[28] = target: Sphingosine kinase 2 (Homo sapiens) (UniProt Q9NRA0); experiment: Inhibition of SPHK2 (unknown origin) at 1 uM by mobility shift microfluidics platform based assay relative to control
[29] = target: Receptor tyrosine-protein kinase erbB-2 (Homo sapiens) (UniProt P04626); experiment: Inhibition of ERB-B2 (unknown origin) at 1 uM by mobility shift microfluidics platform based assay relative to control
[30] = target: Serine/threonine-protein kinase D1 (Homo sapiens) (UniProt Q15139); experiment: Inhibition of PRKD1 (unknown origin) at 1 uM by mobility shift microfluidics platform based assay relative to control
[31] = target: cAMP-dependent protein kinase catalytic subunit alpha (Homo sapiens) (UniProt P17612); experiment: Inhibition of PRKACA (unknown origin) at 1 uM by mobility shift microfluidics platform based assay relative to control
[32] = target: Ribosomal protein S6 kinase alpha-6 (Homo sapiens) (UniProt Q9UK32); experiment: Inhibition of RSK4 (unknown origin) at 1 uM by mobility shift microfluidics platform based assay relative to control
[33] = target: Leukocyte tyrosine kinase receptor (Homo sapiens) (UniProt P29376); experiment: Inhibition of LTK (unknown origin) at 1 uM by mobility shift microfluidics platform based assay relative to control

Work on `CC(C)n1nc(C#Cc2cccc3cc(-c4cccc(C(F)(F)F)c4)ncc23)c2c(N)ncnc21` yielded an inhibition [1] of 5%, an inhibition [2] of 2% and an inhibition [3] of 95%. The inhibition [4] was 98%, the inhibition [5] was 1% and the inhibition [6] was 8%. For the same compound, the inhibition [7] was 4%, the inhibition [8] was 0% and the inhibition [9] was -2%. The inhibition [10] was 0%, the inhibition [11] was 0% and the inhibition [12] was -2%. For the same compound, the inhibition (Homo sapiens) was -1 to 3%, the inhibition [13] was 94% and the inhibition [14] was 4%. The inhibition [15] was 19%, the inhibition [16] was 6% and the inhibition [17] was 3%. The inhibition [18] was 81%, the inhibition [19] was 97% and the inhibition [20] was -10%. It also gave an inhibition [21] of -2%, an inhibition [22] of 1% and an inhibition [23] of 46%. The inhibition [24] was 1%, the inhibition [25] was 0% and the inhibition [26] was 3%. It also gave an inhibition [27] of 1%, an inhibition [28] of 20% and an inhibition [29] of 0%. For the same compound, the inhibition [30] was 3%, the inhibition [31] was 4% and the inhibition [32] was 0%. For the same compound, the inhibition [33] was 8%.

Compound `CC(C)n1nc(C#Cc2cccc(NC(=O)c3cccc(C(F)(F)F)c3)c2)c2c(N)ncnc21` has an inhibition [1] of -1%, an inhibition [2] of 10% and an inhibition [3] of 100%. For the same compound, the inhibition [4] was 100%, the inhibition [5] was 2% and the inhibition [6] was 3%. The inhibition [7] was 3%, the inhibition [8] was 2% and the inhibition [9] was 0%. For the same compound, the inhibition [10] was 9%, the inhibition [11] was -10% and the inhibition [12] was -2%. For the same compound, the inhibition (Homo sapiens) was 1 to 3%, the inhibition [13] was 100% and the inhibition [14] was 2%. For the same compound, the inhibition [15] was 84%, the inhibition [16] was 3% and the inhibition [17] was 55%. For the same compound, the inhibition [18] was 107%, the inhibition [19] was 100% and the inhibition [20] was 0%. The inhibition [21] was -3%, the inhibition [22] was 6% and the inhibition [23] was 97%. The inhibition [24] was 7%, the inhibition [25] was 1% and the inhibition [26] was 2%. It also gave an inhibition [27] of 5%, an inhibition [28] of 0% and an inhibition [29] of 58%. The inhibition [30] was 4%, the inhibition [31] was 2% and the inhibition [32] was 2%. It also gave an inhibition [33] of 4%.
